# According to US7304037B2, “Cytostatic conjugates with integrin ligands” (priority 2001, dated 2007):
# Read-outs that look alike come from different tables or passages of the source.
# Key:
# [1] = molecular target: T1, αvβ3 receptor (αvβ3 from human A375 cells) (Homo sapiens, UniProt P05106+P06756); assay: αvβ3 binding test (echistatin displacement, SPA)
# T1 construct: αvβ3 from human A375 cells was purified analogously to a procedure described by Wong et al; endogenous in cells; host or cells: human A375 cells (endogenous receptor, detergent-solubilised and purified)
# Method: αvβ3 from human A375 cells was purified analogously to a procedure described by Wong et al. in Molecular Pharmacology 50, 529–537 (1996). In each case, 10 μL of αvβ3 (5 ng) in TBS pH 7.6, 2 mM CaCl2, 1 mM MgCl2, 1% n-octylglucopyranoside (Sigma); 10 μL of test substance in TBS pH 7.6, 0.1% DMSO and 45 μL of TBS pH 7.6, 2 mM CaCl2, 1 mM MgCl2, 1 mM MnCl2 were incubated at room temperature for 1 h. In each case, 25 μL of WGA SPA beads (Amersham, 4 mg/ml) and 10 μL of echistatin (0.1 μCi, Amersham, chloramine-T labelled) were then added. After 16 h at room temperature, the samples were measured in a scintillation measuring apparatus (Wallac 1450).
# [2] = system: B16F10 mouse melanoma cell line; type: cell-based
# Method: (§1) The human large intestine cell lines SW 480 and HT29 (ATCC No. CCL 228) and HTB38 and the mouse melanoma cell line B16F10 (CRL 6475) were grown to confluence in Roux dishes in seromed® RPMI 1640 medium (from Biochrom KG, Berlin) with addition of 10% FCS. They were then trypsinized and taken up in RPMI plus 10% FCS to a cell count of 50,000 cells or, for B16F10, 20,000 cells per mL. 100 μL of cell suspension per well were added to a 96 microwell plate and incubated at 37° C. for 1 day in a CO2 incubator. A further 100 μL of RPMI medium and 1 μL of DMSO were then added with the test substances. The growth was checked after day 6. For this purpose, 25 μL of MTT solution (3-(4,5-dimethylthiazol-2-yl)-2,5-diphenyltetrazolium bromide) were added to each well at a starting concentration of 5 mg/mL of water. The plate was incubated at 37° C. for 5 hours in a CO2 incubator. The medium was then aspirated and 100 1L of i-propanol/well were added. After shaking with 100 μL of water for 30 min, the extinction was measured at 595 nm using a Multiplate Reader (BIO-RAD 3550-UV).
# (§2) The cytostatic action is indicated in Table 3 as an IC50 value, in each case for the individual cell lines.
# [3] = system: HT29 human large intestine cell line; type: cell-based
# Method: as §1, §2
# [4] = system: SW480 human large intestine cell line; type: cell-based
# Method: as §1, §2
# [5] = system: hemopoietic stem cells (bone marrow cells); assay: cells; type: cell-based, mice
# Method: Bone marrow cells are flushed out of the femur of mice. 10^5 cells are incubated in McCoy 5A medium (0.3% agar) together with recombinant murine GM-CSF (Genzyme; parent cell colony formation) and the substances (10^−4 to 100 μg/ml) at 37° C. and 7% CO2. 7 days later, the colonies (<50 cells) and clusters (17–50 cells) are counted.
# [6] = system: melanoma xenograft (MEXF 989); type: in vivo, athymic nude mice (NMRI nu/nu strain)
# [7] = system: renal xenograft (RXF 944)
# Excerpt: (§3) In all in-vivo experiments for investigating the inhibition of tumour growth, athymic nude mice (NMRI nu/nu strain) were used. The tumour was developed by serial passage in nude mice, The human origin of the tumour was confirmed by isoenzymatic and immunohistochemical methods.
# (§4) The tumour was implanted subcutaneously in both flanks of nu/nu nude mice 6 to 8 weeks old. […] The mice were assigned to the treatment group or the control group (5 mice per group having 8 to 10 assessable tumours) by randomization.
# (§5) The size of the tumours was measured in two dimensions by means of a slide gauge. The tumour volume which correlated well with the cell count, was then used for all assessments. The volume was calculated according to the formula “length×breadth×breadth/2” ([a×b^2]/2; a and b representing two diameters arranged at right angles).
# (§6) The values of the relative tumour volume (RTV) were calculated for each individual tumour by dividing the tumour size on day X with the tumour size on day 0 (at the time of randomization). The average values of the RTV were then used for the further assessment.
# (§7) The inhibition of the increase of the tumour volume (tumour volume of the test group/control group, T/C, in percent) was the final measured value.
# [8] = system: breast cancer model (MX-1)
# Excerpt: as §3, §4, §5, §6, §7
# The compounds are dissolved in 1% aqueous dextrose solution and administered intravenously from day 1–3 and day 15–17.
# [9] = read-out: IC50 values of the binding to the αVβ3 receptor
# [10] = MEXF 989, 6 mg/kg/day intravenously day 1–3 and day 15–17
# [11] = RXF 944, 6 mg/kg/day intravenously day 1–3 and day 15–17
# [12] = MX-1, 6 mg/kg/day intravenously day 1–3 and day 15–17
# [13] = IC50 values of the binding to the αVβ3 receptor
# T1 sequence (P06756 31-889 limits assumed): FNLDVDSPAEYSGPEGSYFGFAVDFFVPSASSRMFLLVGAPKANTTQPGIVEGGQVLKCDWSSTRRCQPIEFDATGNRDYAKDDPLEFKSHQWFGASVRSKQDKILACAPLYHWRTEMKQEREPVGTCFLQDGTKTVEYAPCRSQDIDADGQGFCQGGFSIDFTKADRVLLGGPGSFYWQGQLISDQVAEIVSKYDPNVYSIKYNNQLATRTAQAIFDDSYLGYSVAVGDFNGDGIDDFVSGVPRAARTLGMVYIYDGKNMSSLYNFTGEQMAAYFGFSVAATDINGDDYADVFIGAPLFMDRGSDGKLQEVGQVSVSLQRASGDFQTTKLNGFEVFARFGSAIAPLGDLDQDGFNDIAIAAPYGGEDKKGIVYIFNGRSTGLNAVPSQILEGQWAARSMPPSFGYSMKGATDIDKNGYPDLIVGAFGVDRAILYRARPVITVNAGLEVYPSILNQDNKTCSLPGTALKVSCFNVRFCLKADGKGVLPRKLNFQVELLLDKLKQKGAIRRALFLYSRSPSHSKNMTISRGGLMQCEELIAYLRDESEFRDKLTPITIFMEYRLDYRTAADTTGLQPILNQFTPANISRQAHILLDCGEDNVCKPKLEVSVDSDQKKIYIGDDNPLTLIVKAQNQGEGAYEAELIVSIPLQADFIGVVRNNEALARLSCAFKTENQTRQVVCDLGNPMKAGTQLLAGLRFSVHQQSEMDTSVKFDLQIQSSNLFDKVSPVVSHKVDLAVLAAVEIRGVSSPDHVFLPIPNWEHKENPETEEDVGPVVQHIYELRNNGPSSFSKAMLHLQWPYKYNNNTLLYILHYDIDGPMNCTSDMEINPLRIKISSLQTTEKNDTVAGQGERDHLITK
# T1 sequence (P06756 891-1048 partner limits assumed): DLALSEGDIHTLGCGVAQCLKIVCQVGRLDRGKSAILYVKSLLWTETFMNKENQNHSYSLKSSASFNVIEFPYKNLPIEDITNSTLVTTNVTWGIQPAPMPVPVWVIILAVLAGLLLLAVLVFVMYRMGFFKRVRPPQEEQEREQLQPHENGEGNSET
# T1 sequence (P05106 27-788): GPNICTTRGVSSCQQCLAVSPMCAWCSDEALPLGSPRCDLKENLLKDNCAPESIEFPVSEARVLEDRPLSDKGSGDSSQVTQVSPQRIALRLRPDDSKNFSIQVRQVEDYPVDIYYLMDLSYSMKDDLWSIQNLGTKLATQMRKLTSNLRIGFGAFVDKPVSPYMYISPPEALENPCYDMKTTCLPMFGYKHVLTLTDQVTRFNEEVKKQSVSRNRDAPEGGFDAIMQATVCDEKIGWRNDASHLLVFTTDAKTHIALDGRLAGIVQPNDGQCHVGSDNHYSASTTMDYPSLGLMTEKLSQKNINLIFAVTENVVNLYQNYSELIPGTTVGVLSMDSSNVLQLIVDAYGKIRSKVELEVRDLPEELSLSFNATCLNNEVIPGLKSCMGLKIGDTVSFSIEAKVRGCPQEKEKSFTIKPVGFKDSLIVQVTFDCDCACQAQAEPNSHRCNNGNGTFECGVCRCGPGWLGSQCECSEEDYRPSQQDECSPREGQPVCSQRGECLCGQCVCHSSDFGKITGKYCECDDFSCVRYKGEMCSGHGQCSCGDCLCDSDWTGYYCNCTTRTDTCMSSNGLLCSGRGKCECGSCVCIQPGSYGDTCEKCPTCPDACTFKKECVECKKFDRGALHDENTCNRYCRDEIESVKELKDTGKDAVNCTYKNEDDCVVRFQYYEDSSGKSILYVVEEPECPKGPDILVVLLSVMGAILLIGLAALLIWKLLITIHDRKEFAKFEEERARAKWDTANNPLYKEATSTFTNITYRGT
Compound,"IC50 [1, 9] [nM]",IC50 [2] [nM],IC50 [3] [nM],IC50 [4] [nM],toxicity against stem cells in vitro compared to camptothecin (in words) [5],other results
"CCCNC(=O)Nc1cccc(S(=O)(=O)Nc2cccc(C(CC(=O)O)NC(=O)Nc3ccc(NC(=S)N[C@@H](C)C(=O)N4CCC[C@H]4C(=O)N[C@H](C(=O)O[C@]4(CC)C(=O)OCc5c4cc4n(c5=O)Cc5cc6ccccc6nc5-4)C(C)C)cc3)c2)c1 (single isomer, unassigned) [Example 4]",500,700,150,600,drastically reduced toxicity against stem cells in vitro compared to camptothecin,
"CCCNC(=O)Nc1cccc(S(=O)(=O)Nc2cccc(C(CC(=O)O)NC(=O)Nc3ccc(NC(=S)N[C@@H](Cc4c[nH]cn4)C(=O)N4CCC[C@H]4C(=O)N[C@H](C(=O)O[C@]4(CC)C(=O)OCc5c4cc4n(c5=O)Cc5cc6ccccc6nc5-4)C(C)C)cc3)c2)c1 (single isomer, unassigned) [Example 5]",30,1000,300,700,,
"CCCNC(=O)Nc1cccc(S(=O)(=O)Nc2cccc(C(CC(=O)O)NC(=O)Nc3ccc(NC(=S)N[C@@H](C)C(=O)N4CCC[C@H]4C(=O)N[C@H](C(=O)O[C@]4(CC)C(=O)OCc5c4cc4n(c5=O)Cc5cc6ccccc6nc5-4)C(C)C)cc3)c2)c1 (single isomer, unassigned) [Example 3]",15,700,150,500,drastically reduced toxicity against stem cells in vitro compared to camptothecin,"lethality [6, 10]: 0/5; optimal T/C [6, 10]: 10.3%; inhibition of the tumour growth (in words) ([6]; MEXF 989, intravenously day 1–3 and day 15–17): effected inhibitions of the tumour growth; lethality [7, 11]: 1/7; optimal T/C [7, 11]: 24.0%; inhibition of the tumour growth (in words) ([7]; RXF 944, intravenously day 1–3 and day 15–17): effected inhibitions of the tumour growth; lethality [8, 12]: 0/5; optimal T/C [8, 12]: 12.4%; inhibition of the tumour growth (in words) ([8]; MX-1, intravenously day 1–3 and day 15–17): effected inhibitions of the tumour growth"
"CCCNC(=O)Nc1cccc(S(=O)(=O)Nc2cccc(C(CC(=O)O)NC(=O)Nc3ccc(NC(=S)N[C@@H](C)C(=O)N4CCC[C@H]4C(=O)N[C@@H](CC(C)C)C(=O)NC4C=CCC5CN(c6c(F)cc7c(=O)c(C(=O)O)cn(C8CC8)c7c6Cl)CC54)cc3)c2)c1 (single isomer, unassigned) [Example 12]",30,,,,,IC50 ([2]; 6 days): 2000 nM; IC50 ([3]; 6 days): 600 nM; IC50 ([4]; 6 days): 1000 nM
"CCCNC(=O)Nc1cccc(S(=O)(=O)Nc2cccc(C(CC(=O)O)NC(=O)Nc3ccc(NC(=S)N[C@@H](CC(N)=O)C(=O)N4CCC[C@H]4C(=O)N[C@H](C(=O)O[C@]4(CC)C(=O)OCc5c4cc4n(c5=O)Cc5cc6ccccc6nc5-4)C(C)C)cc3)c2)c1 (single isomer, unassigned) [Example 6]",100,600,200,400,,
"CCCNC(=O)Nc1cccc(S(=O)(=O)Nc2cccc(C(CC(=O)[O-])NC(=O)Nc3ccc(NC(=S)NCC(=O)N4CCC[C@H]4C(=O)N[C@H](C(=O)O[C@]4(CC)C(=O)OCc5c4cc4n(c5=O)Cc5cc6ccccc6nc5-4)C(C)C)cc3)c2)c1.[Na+] (single isomer, unassigned) [Example 1]",,160,60,150,drastically reduced toxicity against stem cells in vitro compared to camptothecin,"IC50 [1, 13]: 8 nM; lethality ([6]; MEXF 989, 18 mg/kg/day intravenously day 1–3 and day 15–17): 1/5; lethality ([6]; MEXF 989, 24 mg/kg/day intravenously day 1–3 and day 15–17): 1/5; lethality ([7]; RXF 944, 18 mg/kg/day intravenously day 1–3 and day 15–17): 1/7; lethality ([7]; RXF 944, 24 mg/kg/day intravenously day 1–3 and day 15–17): 0/7; lethality ([8]; MX-1, 18 mg/kg/day intravenously day 1–3 and day 15–17): 0/5"
"CCCNC(=O)Nc1cccc(S(=O)(=O)Nc2cccc(C(CC(=O)[O-])NC(=O)Nc3ccc(NC(=S)NCC(=O)N4CCC[C@H]4C(=O)N[C@H](C(=O)O[C@]4(CC)C(=O)OCc5c4cc4n(c5=O)Cc5cc6ccccc6nc5-4)C(C)C)cc3)c2)c1.[Na+] (single isomer, unassigned) [Example 2]",,400,150,400,drastically reduced toxicity against stem cells in vitro compared to camptothecin,"IC50 [1, 13]: 800 nM"
"CC[C@@]1(O)C(=O)OCc2c1cc1n(c2=O)Cc2cc3c(CN(C)C)c(O)ccc3nc2-1 [topotecan, reference compound]",,,,,,"lethality ([7]; RXF 944, 1.8 mg/kg/day): 0/7; optimal T/C ([7]; RXF 944, 1.8 mg/kg/day): 47.8%"
"CCCNC(=O)Nc1cccc(S(=O)(=O)Nc2cccc(C(CC(=O)O)NC(=O)Nc3ccc(NC(=S)N[C@@H](CCC)C(=O)N4CCC[C@H]4C(=O)N[C@H](C(=O)O[C@]4(CC)C(=O)OCc5c4cc4n(c5=O)Cc5cc6ccccc6nc5-4)C(C)C)cc3)c2)c1 (single isomer, unassigned) [Example 7]",100,1000,350,600,,
"CCCNC(=O)Nc1cccc(S(=O)(=O)Nc2cccc(C(CC(=O)O)NC(=O)Nc3ccc(NC(=S)NCC(=O)N4CCC[C@H]4C(=O)N[C@@H](CC(C)C)C(=O)O[C@]4(CC)C(=O)OCc5c4cc4n(c5=O)Cc5cc6ccccc6nc5-4)cc3)c2)c1 (single isomer, unassigned) [Example 9]",,80,30,70,,
"CCCNC(=O)Nc1cccc(S(=O)(=O)Nc2cccc(C(CC(=O)O)NC(=O)Nc3ccc(NC(=S)N[C@@H](CC(=O)O)C(=O)N4CCC[C@H]4C(=O)N[C@H](C(=O)O[C@]4(CC)C(=O)OCc5c4cc4n(c5=O)Cc5cc6ccccc6nc5-4)C(C)C)cc3)c2)c1 (single isomer, unassigned) [Example 8]",,300,50,50,,
"CC[C@@]1(O)C(=O)OCc2c1cc1n(c2=O)Cc2cc3ccccc3nc2-1 [camptothecin, 20(S)-Camptothecin, reference compound]",,,,,,"lethality ([7]; RXF 944, 2.5 mg/kg/day): 0/6; optimal T/C ([7]; RXF 944, 2.5 mg/kg/day): 41.1%; IC50 ([5]; Mus musculus, Bone marrow cell, 168 h, murine bone marrow cells, GM-CSF, 7 days, read-out: IC50 values of toxicity against hemopoietic stem cells): 3 ng/mL"
